The values below come from patent EP3400938B1, “NOVEL N-(1,2,3-TRIAZOLMETHYL)ISATIN AND N-(1,2,3-TRIAZOLMETHYL)-3-HYDROXY-3-ARYLOXINDOLES WITH CYTOTOXIC AND ANTI-TUMOR ACTIVITY” (Universidade de Évora, priority 2017, dated 2018).

Experiment [1] relates to SU-DHL-2. Put plainly: 72 h MTT proliferation assay on lymphoma cell lines (SU-DHL-2). Format: cell-based. As to conditions: SU-DHL-2 (ABC-DLBCL), 72h exposure time, read-out: ABC-DLBC cell lines IC50, SU-DHL-2. The protocol: (§1) A set of ten compounds was tested against four lymphoma cell lines belonging to Germinal Center B-cell-like Diffuse Large B-Cell lymphoma, GCB-DLBCL and Activated B-Cell-like Diffuse Large B-Cell lymphoma, ABC-DLBCL (Table 3). Compounds were tested in triplicates as single agents, for 72 hours by using a large range of concentrations. […] In particular, ISATIN-BENZYL is the most promising one reaching IC50s of 1 and 5 µM in the OCI-LY-10 and SU-DHL-2 cell lines (Table 3). Table 3. IC50 values obtained from MTT assay with a 72h exposure time on lymphoma cell lines.
(§2) 72 h MTT assay on lymphoma cell lines.
(§3) Compounds were dissolved in dimethyl sulphoxide (DMSO) to obtain a stock concentration of 20 mM.
(§4) Cell lines. The panel of lymphoma cell lines comprised models derived from diffuse large B-cell lymphoma (n. 4) cell lines derived from DLBCL of the germinal center B-cell type (GCB-DLBCL), such as VAL and DOHH-2, and derived of the activated B-cell type (ABC-DLBCL) such as OCI-LY-10 and SU-DHL-2.
(§5) Cells were seeded in 96-well plates (non-tissue culture treated) at a density of 10,000 cells for all cell lines. Each compound was dissolved in dimethyl sulphoxide (DMSO). For treatment of cells, compounds were serially diluted in the appropriate tissue culture medium, at a range of 20 µM - 19 nM following a 1:2 dilution factor and added to cells (in three replicates). Cells were incubated for 72 hours at 37 °C, 5% CO2. DMSO alone was added to negative control (untreated) cells. Wells containing medium only were included on each plate and served as blanks for absorbance readings. MTT (Sigma-Aldrich Chemie GmbH, Buchs, Switzerland) was prepared as a 5 mg/ml stock in PBS and filter-sterilized. MTT solution (22µL) was added to each well and tissue culture plates were incubated at 37°C for 4 hours. Cells were then lysed with 25% SDS lysis buffer and absorbance was read at 570 nm using an AD340 plate reader (Beckman Coulter International SA, Switzerland). Absorbance values were expressed in percentage of proliferating cells in comparison with control cells (control corresponds to 100%).
On the technique in general: Formazan colour is commonly taken as a measure of viable cells.

The test system of experiment [2] is SW480 colon adenocarcinoma cells. Put plainly: 24 h MTT cytotoxicity assay, SW480 cell line. It counts as cell-based. As to conditions: 24h exposure time. As for the experimental part:
One of the main strategies for the treatment of cancer is chemotherapy (De Santis et al. 2014). There are two main factors that made the development of new chemotherapeutic agents crucial: the side effects of the current anticancer drugs used in the clinic and the appearance of tumour cell resistance. A first step facing at tackling this challenging goal is the evaluation of the cytotoxic activity of the new synthesized drugs. In our case, cytotoxicity was evaluated by means of the antiproliferative assay MTT, which is a high-throughput method widely used for the screening of new drugs that is based on the ability of the mitochondrial dehydrogenases to reduce a water soluble yellow dye, namely 3-(4,5-dimethylthiazol-2-yl)-2,5-diphenyl tetrazolium bromide, to form a water insoluble blue formazan (McCauley et al., 2013). […] The best inhibition was obtained with (S)-2 (Table 2, entry 2). Overall the (S) series gave better inhibition results. Table 2 IC50 values obtained from MTT assay with a 24h exposure time
Biological Screening Studies 24 h MTT Cytototoxicity Assay - SW480 cell line
Approximately 5 × 10^3 SW480 colon adenocarcinoma cells were cultured in 200 µl culture medium per well (DMEM medium), supplemented with 10% newborn calf serum and 1% amphotericin-penicillin-streptomycin solution in 96-well plates and incubated at 37 °C under a 5% CO2 atmosphere. The cells were grown for 24h and then exposed to different concentrations of the tested drugs (dissolved in culture medium) for 24h. Hydrogen peroxide was used as a positive control. The cells were washed with the culture medium, incubated with MTT (500 µg/ml) for a further period of 3 hours. At the end of the incubation, the medium was removed, then carefully washed with PBS and 200 µl DMSO were added to each well. Absorbance was read at 570 nm in a microplate reader. Four replicates per dose were included. The IC50 values, that is, the concentrations which produced 50% inhibition of cell viability were calculated from MTT data using the GraphPadPrism Software Inc. (version 6.01) (USA).

Experiment [3] relates to VAL. Put plainly: 72 h MTT proliferation assay on lymphoma cell lines (VAL). As to conditions: VAL (GCB-DLBCL), 72h exposure time, read-out: GCB-DLBC cell lines IC50, VAL. It counts as cell-based. As for the experimental part: as §1, §2, §3, §4, §5
Experiment [4] deals with OCI-LY-10. The experiment can be described thus: 72 h MTT proliferation assay on lymphoma cell lines (OCI-LY-10). It counts as cell-based. As to conditions: 72h exposure time, read-out: ABC-DLBC cell lines IC50, OCI-LY-10. As for the experimental part: as §1, §2, §3, §4, §5
The test system of experiment [5] is DOHH-2. The experiment can be described thus: 72 h MTT proliferation assay on lymphoma cell lines (DOHH-2). It counts as cell-based. As to conditions: DOHH-2 (GCB-DLBCL), 72h exposure time, read-out: GCB-DLBC cell lines IC50, DOHH-2. The protocol:
as §1, §2, §3, §4, §5

Experiment [6] relates to SW480 colon adenocarcinoma cells. As to conditions: bench-mark value from Xu et al. 2003, SW480; cited from earlier work.
The mark [7] stands for this setting: Homo sapiens, OCI-Ly10, OCI-LY-10 (ABC-DLBCL).

SMILES strings stand for the structures. Where two headings read alike, the source gives them in different places.

The IC50 is the concentration needed to halve the response being measured.

`CC(C)[C@H]1CC[C@H](C)C[C@H]1n1cc(CN2C(=O)C(=O)c3ccccc32)nn1` [ISATIN-BENZYL, 1-((1-((1R,2R,5S)-2-Isopropyl-5-methylcyclohexyl)-1H-1,2,3-triazol-4-yl)methyl)indoline-2,3-dione]: the IC50 is 5 µM in experiment [1] (Homo sapiens); 84.4 µM in experiment [2] (Homo sapiens); > 20 µM in experiment [3]; 1 µM in experiment [4] (setting [7]); > 20 µM in experiment [5] (Homo sapiens).
For the molecule `O=C1N(Cc2cn(Cc3ccccc3)nn2)c2ccccc2C1(O)c1ccsc1` [(S) -5, 1-((1-Benzyl-1H-1,2,3-triazol-4-yl)methyl)-3-hydroxy-3-(thiophen-3-yl)indolin-2-one], in experiment [2], inhibition was half-maximal at 33 µM (IC50).
Consider `Cc1ccc(C2(O)C(=O)N(Cc3cn(Cc4ccccc4)nn3)c3ccccc32)cc1` [(S) -8, 1-((1-Benzyl-1H-1,2,3-triazol-4-yl)methyl)-3-hydroxy-3-p-tolylindolin-2-one], for which the half-inhibitory concentration (IC50) in experiment [2] (Homo sapiens, SW480, 24 h) was > 200 µM.
In experiment [2], `O=C1N(Cc2cn(Cc3ccccc3)nn2)c2ccccc2C1(O)c1cccc(O)c1` [(R) -6, 1-((1-Benzyl-1H-1,2,3-triazol-4-yl)methyl)-3-hydroxy-3-(3-hydroxyphenyl)indolin-2-one] showed an IC50 of 210 µM.
With `O=C1N(Cc2cn(Cc3ccccc3)nn2)c2ccc(Br)cc2C1(O)c1ccccc1` [(S) -7, 1-((1-Benzyl-1H-1,2,3-triazol-4-yl)methyl)-5-bromo-3-hydroxy-3-phenylindolin-2-one], the half-inhibitory concentration (IC50) in experiment [1] (Homo sapiens, SU-DHL-2, 72 h) is 19 µM; in experiment [2], 34.1 µM; in experiment [3], > 20 µM; in experiment [4] (setting [7]) it was > 20 µM; in experiment [5] (Homo sapiens), 19 µM.
Take `O=C1N(Cc2cn(Cc3ccccc3)nn2)c2ccccc2C1(O)c1ccccc1` [(S) -1, 1-((1-Benzyl-1H-1,2,3-triazol-4-yl)methyl)-3-hydroxy-3-phenylindolin-2-one]: in experiment [2], 63 µM corresponded to half-maximal inhibition (IC50).
With `COc1cccc2c1C(=O)c1c(O)c3c(c(O)c1C2=O)C[C@@](O)(C(=O)CO)C[C@@H]3O[C@H]1C[C@H](N)[C@H](O)[C@H](C)O1` [Dox, doxorubicin], in experiment [6], the IC50 was 65.3 µM.
As for `O=C1N(Cc2cn(Cc3ccccc3)nn2)c2ccccc2C1(O)c1ccc(F)cc1` [(R) -3, 1-((1-Benzyl-1H-1,2,3-triazol-4-yl)methyl)-3-(4-fluorophenyl)-3-hydroxyindolin-2-one], the IC50 in experiment [1] (Homo sapiens, SU-DHL-2, 72 h) was > 20 µM; in experiment [2] (Homo sapiens, SW480, 24 h), 49.1 µM; in experiment [3], > 20 µM; in experiment [4] (setting [7]), > 20 µM; in experiment [5] (Homo sapiens), > 20 µM.
In experiment [2] (Homo sapiens, SW480, 24 h), `O=C1N(Cc2cn(Cc3ccccc3)nn2)c2ccc(Br)cc2C1(O)c1ccccc1` [(R) -7, 1-((1-Benzyl-1H-1,2,3-triazol-4-yl)methyl)-5-bromo-3-hydroxy-3-phenylindolin-2-one] returned an IC50 of 42.5 µM.
In the case of `O=C1C(=O)N(Cc2cn(Cc3ccccc3)nn2)c2ccccc21` [ISATIN-MENTHOL, 1-((1-Benzyl-1H-1,2,3-triazol-4-yl)methyl)indoline-2,3-dione], the IC50 in experiment [1] (Homo sapiens) was 15 µM; in experiment [2] (Homo sapiens), 13.7 µM; in experiment [3], > 20 µM; in experiment [4] (setting [7]) it was 7 µM; in experiment [5] (Homo sapiens) it was > 20 µM.
`O=C1N(Cc2cn(Cc3ccccc3)nn2)c2ccccc2C1(O)c1ccc(F)cc1` [(S) -3, 1-((1-Benzyl-1H-1,2,3-triazol-4-yl)methyl)-3-(4-fluorophenyl)-3-hydroxyindolin-2-one]: the IC50 is > 20 µM in experiment [1]; 25.9 µM in experiment [2]; > 20 µM in experiment [3]; > 20 µM in experiment [4] (OCI-LY-10 (ABC-DLBCL)); > 20 µM in experiment [5].
Turning to `O=C1N(Cc2cn(Cc3ccccc3)nn2)c2ccccc2C1(O)c1ccc2ccccc2c1` [(S) -2, 1-((1-Benzyl-1H-1,2,3-triazol-4-yl)methyl)-3-hydroxy-3-(naphthalen-2-yl)indolin-2-one], the half-inhibitory concentration (IC50) was 19 µM in experiment [1]; 12.8 µM in experiment [2]; > 20 µM in experiment [3]; > 20 µM in experiment [4] (OCI-LY-10 (ABC-DLBCL)); > 20 µM in experiment [5].
For `O=C1N(Cc2cn(Cc3ccccc3)nn2)c2ccccc2C1(O)c1ccc2ccccc2c1` [(R) -2, 1-((1-Benzyl-1H-1,2,3-triazol-4-yl)methyl)-3-hydroxy-3-(naphthalen-2-yl)indolin-2-one], the IC50 is > 20 µM in experiment [1] (Homo sapiens, SU-DHL-2, 72 h); 18.6 µM in experiment [2] (Homo sapiens, SW480, 24 h); > 20 µM in experiment [3]; > 20 µM in experiment [4] (setting [7]); > 20 µM in experiment [5] (Homo sapiens).
On to `O=C1N(Cc2cn(Cc3ccccc3)nn2)c2ccccc2C1(O)c1cccc(O)c1` [(S) -6, 1-((1-Benzyl-1H-1,2,3-triazol-4-yl)methyl)-3-hydroxy-3-(3-hydroxyphenyl)indolin-2-one], for which, in experiment [2], the IC50 worked out at 52.8 µM.
`COc1ccc(C2(O)C(=O)N(Cc3cn(Cc4ccccc4)nn3)c3ccccc32)cc1` [(R) -4, 1-((1-Benzyl-1H-1,2,3-triazol-4-yl)methyl)-3-hydroxy-3-(4-methoxyphenyl)indolin-2-one]: the IC50 in experiment [2] (Homo sapiens, SW480, 24 h) was 76.4 µM.
Still for that read-out and setting: for `CCCCn1cc(CN2C(=O)C(O)(c3ccccc3)c3ccccc32)nn1` [(S) -9, 1-((1-Butyl-1H-1,2,3-triazol-4-yl)methyl)-3-hydroxy-3-phenylindolin-2-one] the value was > 200 µM.
Regarding `O=C1N(Cc2cn(Cc3ccccc3)nn2)c2ccccc2C1(O)c1ccsc1` [(R) -5, 1-((1-Benzyl-1H-1,2,3-triazol-4-yl)methyl)-3-hydroxy-3-(thiophen-3-yl)indolin-2-one], the IC50 in experiment [1] (Homo sapiens, SU-DHL-2, 72 h) is > 20 µM; in experiment [2], 86.4 µM; in experiment [3] it was > 20 µM; in experiment [4] (setting [7]), > 20 µM; in experiment [5] (Homo sapiens), > 20 µM.
Turning to `COc1ccc(C2(O)C(=O)N(Cc3cn(Cc4ccccc4)nn3)c3ccccc32)cc1` [(S) -4, 1-((1-Benzyl-1H-1,2,3-triazol-4-yl)methyl)-3-hydroxy-3-(4-methoxyphenyl)indolin-2-one], 48.9 µM corresponded to half-maximal inhibition in experiment [2] (IC50).
Take `O=C1N(Cc2cn(Cc3ccccc3)nn2)c2ccccc2C1(O)c1ccccc1` [(R) -1, 1-((1-Benzyl-1H-1,2,3-triazol-4-yl)methyl)-3-hydroxy-3-phenylindolin-2-one]: the IC50 was > 20 µM in experiment [1] (Homo sapiens, SU-DHL-2, 72 h); 82.6 µM in experiment [2] (Homo sapiens, SW480, 24 h); > 20 µM in experiment [3]; > 20 µM in experiment [4] (setting [7]); > 20 µM in experiment [5] (Homo sapiens).
